# Measured values as given in patent US10131652B2, “Pyrimidinyloxy benzene derivatives as herbicides” (E. I. DU PONT DE NEMOURS AND COMPANY, priority 2014, dated 2018).
# Read-outs that look alike come from different tables or passages of the source.
# Assays:
# Assay in all cases: Test F pre-/postemergence plant response
# Type in all cases: in vivo
# [1] = test system: corn (Zea mays); details: Zea mays, scale 0 to 100
# Procedure, shortened: (§1)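 Visual rating versus untreated controls, 0–100 scale (0 = no effect, 100 = complete control), taken 14–21 d after treatment in greenhouse. Pre: seeds planted in silt loam, soil treated. Post: plants 2–18 cm, 1–4 leaves. Compound formulated in non-phytotoxic solvent plus surfactant.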
# [2] = test system: hairy beggarticks (Bidens pilosa); details: Bidens pilosa, scale 0 to 100, read-out: Plant response rating, Beggarticks
# Procedure, shortened: as §1
# [3] = test system: wild poinsettia (Euphorbia heterophylla); details: Euphorbia heterophylla, scale 0 to 100, read-out: Plant response rating, Poinsettia, Wild
# Procedure, shortened: as §1
# [4] = test system: nightshade (eastern black nightshade, Solanum ptycanthum); details: Solanum, pre-emergence, scale 0 to 100, read-out: Plant response rating, Nightshade
# Procedure, shortened: as §1
# [5] = test system: kochia (Kochia scoparia); details: Bassia scoparia, pre-emergence, scale 0 to 100, read-out: Plant response rating, Kochia
# Procedure, shortened: as §1
# [6] = test system: surinam grass (Brachiaria decumbens); details: Urochloa decumbens, pre-emergence, scale 0 to 100, read-out: Plant response rating, Surinam Grass
# Procedure, shortened: as §1
# [7] = test system: Italian ryegrass (Lolium multiflorum); details: Lolium multiflorum, scale 0 to 100, read-out: Plant response rating, Ryegrass, Italian; for pest or weed control at 16 g/ha: 16 g ai/ha; for pest or weed control at 31 g/ha: 31 g ai/ha; for pest or weed control at 125 g/ha: 125 g ai/ha
# Procedure, shortened: as §1
# [8] = test system: Brazilian crabgrass (Digitaria horizontalis); details: Digitaria horizontalis, scale 0 to 100, read-out: Plant response rating, Crabgrass, Brazil
# Procedure, shortened: as §1
# [9] = test system: soybean (Glycine max); details: Glycine max, scale 0 to 100, read-out: Plant response rating, Soybean
# Procedure, shortened: as §1
# [10] = test system: velvetleaf (Abutilon theophrasti); details: Abutilon theophrasti, pre-emergence, scale 0 to 100, read-out: Plant response rating, Velvetleaf
# Procedure, shortened: as §1
# [11] = test system: goosegrass (Eleusine indica); details: Eleusine indica, pre-emergence, scale 0 to 100, read-out: Plant response rating, Goosegrass
# Procedure, shortened: as §1
# [12] = test system: large (Lg) crabgrass (Digitaria sanguinalis); details: Digitaria sanguinalis, pre-emergence, scale 0 to 100, read-out: Plant response rating, Crabgrass, Large
# Procedure, shortened: as §1
# [13] = test system: ragweed (common ragweed, Ambrosia elatior); details: Ambrosia artemisiifolia, pre-emergence, scale 0 to 100, read-out: Plant response rating, Ragweed
# Procedure, shortened: as §1
# [14] = test system: field bindweed (Convolvulus arvensis); details: Convolvulus arvensis, scale 0 to 100, read-out: Plant response rating, Field Bindweed
# Procedure, shortened: as §1
# [15] = test system: yellow nutsedge (Cyperus esculentus); details: Cyperus, pre-emergence, scale 0 to 100, read-out: Plant response rating, Nutsedge, Yellow
# Procedure, shortened: as §1
# [16] = test system: fall panicum (Panicum dichotomiflorum); details: Panicum dichotomiflorum, scale 0 to 100, read-out: Plant response rating, Panicum, Fall
# Procedure, shortened: as §1
# [17] = post-emergence, 8 g ai/ha Postemergence
# [18] = post-emergence, 16 g ai/ha Postemergence
# [19] = post-emergence, 31 g ai/ha Postemergence
# [20] = post-emergence, 62 g ai/ha Postemergence
# [21] = post-emergence, 125 g ai/ha Postemergence
# [22] = pre-emergence, 8 g ai/ha Preemergence
# [23] = pre-emergence, 16 g ai/ha Preemergence
# [24] = pre-emergence, 31 g ai/ha Preemergence
# [25] = pre-emergence, 62 g ai/ha Preemergence
# [26] = pre-emergence, 125 g ai/ha Preemergence
compound,measurement,setting,value
"FC(F)c1cc(-c2ccccc2Oc2ncc(Br)cn2)no1 [Compound 62, 5-bromo-2-[2-[5-(difluoromethyl)-3-isoxazolyl]phenoxy]pyrimidine]","Corn plant response rating (crop injury, 0 = no effect, 100 = complete kill) at 8 g/ha",[1]; [17],0%
same,"Corn plant response rating (crop injury, 0 = no effect, 100 = complete kill) at 16 g/ha",[1]; [18],0%
same,"Corn plant response rating (crop injury, 0 = no effect, 100 = complete kill) at 31 g/ha",[1]; [19],0%
same,"Corn plant response rating (crop injury, 0 = no effect, 100 = complete kill) at 62 g/ha",[1]; [20],5%
same,"Corn plant response rating (crop injury, 0 = no effect, 100 = complete kill) at 125 g/ha",[1]; [21],10%
same,"Corn plant response rating (crop injury, 0 = no effect, 100 = complete kill) at 8 g/ha",[1]; [22],0%
same,"Corn plant response rating (crop injury, 0 = no effect, 100 = complete kill) at 16 g/ha",[1]; [23],0%
same,"Corn plant response rating (crop injury, 0 = no effect, 100 = complete kill) at 31 g/ha",[1]; [24],0%
same,"Corn plant response rating (crop injury, 0 = no effect, 100 = complete kill) at 62 g/ha",[1]; [25],0%
same,"Corn plant response rating (crop injury, 0 = no effect, 100 = complete kill) at 125 g/ha",[1]; [26],0%
same,pest or weed control at 8 g/ha,[2]; [17],5%
same,pest or weed control at 16 g/ha,[2]; [18],5%
same,pest or weed control at 31 g/ha,[2]; [19],10%
same,pest or weed control at 62 g/ha,[2]; [20],50%
same,pest or weed control at 125 g/ha,[2]; [21],80%
same,pest or weed control at 8 g/ha,[2]; [22],0%
same,pest or weed control at 16 g/ha,[2]; [23],0%
same,pest or weed control at 31 g/ha,[2]; [24],0%
same,pest or weed control at 62 g/ha,[2]; [25],0%
same,pest or weed control at 125 g/ha,[2]; [26],0%
same,pest or weed control at 8 g/ha,[3]; [17],25%
same,pest or weed control at 16 g/ha,[3]; [18],35%
same,pest or weed control at 31 g/ha,[3]; [19],40%
same,pest or weed control at 62 g/ha,[3]; [20],50%
same,pest or weed control at 125 g/ha,[3]; [21],50%
same,pest or weed control at 8 g/ha,[3]; [22],0%
same,pest or weed control at 16 g/ha,[3]; [23],0%
same,pest or weed control at 31 g/ha,[3]; [24],30%
same,pest or weed control at 125 g/ha,[3]; [26],35%
same,pest or weed control at 62 g/ha,"[3]; pre-emergence, Preemergence",25%
same,pest or weed control at 8 g/ha,[4]; 8 g ai/ha Preemergence,0%
same,pest or weed control at 16 g/ha,[4]; 16 g ai/ha Preemergence,0%
same,pest or weed control at 31 g/ha,[4]; 31 g ai/ha Preemergence,70%
same,pest or weed control at 125 g/ha,[4]; 125 g ai/ha Preemergence,100%
same,pest or weed control at 62 g/ha,[4]; Preemergence,98%
same,pest or weed control at 8 g/ha,[5]; 8 g ai/ha Preemergence,10%
same,pest or weed control at 31 g/ha,"[5]; 31 g ai/ha, Preemergence",20%
same,pest or weed control at 125 g/ha,"[5]; 125 g ai/ha, Preemergence",95%
same,pest or weed control at 62 g/ha,[5]; Preemergence,35%
same,pest or weed control at 8 g/ha,[6]; 8 g ai/ha Preemergence,0%
same,pest or weed control at 16 g/ha,[6]; 16 g ai/ha Preemergence,0%
same,pest or weed control at 31 g/ha,[6]; 31 g ai/ha Preemergence,15%
same,pest or weed control at 125 g/ha,[6]; 125 g ai/ha Preemergence,10%
same,pest or weed control at 62 g/ha,[6]; Preemergence,15%
same,pest or weed control at 8 g/ha,[7]; [17],0%
same,pest or weed control at 16 g/ha,"[7]; post-emergence, Postemergence",0%
same,pest or weed control at 31 g/ha,"[7]; post-emergence, Postemergence",0%
same,pest or weed control at 62 g/ha,"[7]; post-emergence, 62 g ai/ha, Postemergence",10%
same,pest or weed control at 125 g/ha,"[7]; post-emergence, Postemergence",10%
same,pest or weed control at 8 g/ha,[7]; [22],0%
same,pest or weed control at 16 g/ha,"[7]; pre-emergence, Preemergence",0%
same,pest or weed control at 31 g/ha,"[7]; pre-emergence, Preemergence",0%
same,pest or weed control at 125 g/ha,"[7]; pre-emergence, Preemergence",40%
same,pest or weed control at 62 g/ha,"[7]; pre-emergence, Preemergence",0%
same,pest or weed control at 8 g/ha,[8]; [17],0%
same,pest or weed control at 16 g/ha,[8]; [18],0%
same,pest or weed control at 31 g/ha,[8]; [19],10%
same,pest or weed control at 62 g/ha,[8]; [20],15%
same,pest or weed control at 125 g/ha,[8]; [21],10%
same,pest or weed control at 8 g/ha,[8]; [22],0%
same,pest or weed control at 16 g/ha,[8]; [23],0%
same,pest or weed control at 31 g/ha,[8]; [24],75%
same,pest or weed control at 62 g/ha,[8]; [25],100%
same,pest or weed control at 125 g/ha,[8]; [26],100%
same,plant injury at 8 g/ha,[9]; [17],10%
same,plant injury at 16 g/ha,[9]; [18],20%
same,plant injury at 31 g/ha,[9]; [19],40%
same,plant injury at 62 g/ha,[9]; [20],65%
same,plant injury at 125 g/ha,[9]; [21],85%
same,plant injury at 8 g/ha,[9]; [22],0%
same,plant injury at 16 g/ha,[9]; [23],0%
same,plant injury at 31 g/ha,[9]; [24],0%
same,plant injury at 125 g/ha,[9]; [26],40%
same,plant injury at 62 g/ha,"[9]; pre-emergence, Preemergence",10%
same,pest or weed control at 8 g/ha,[10]; 8 g ai/ha Preemergence,0%
same,pest or weed control at 16 g/ha,[10]; 16 g ai/ha Preemergence,35%
same,pest or weed control at 31 g/ha,[10]; 31 g ai/ha Preemergence,75%
same,pest or weed control at 125 g/ha,[10]; 125 g ai/ha Preemergence,100%
same,pest or weed control at 62 g/ha,[10]; Preemergence,100%
same,pest or weed control at 8 g/ha,[11]; 8 g ai/ha Preemergence,0%
same,pest or weed control at 16 g/ha,[11]; 16 g ai/ha Preemergence,0%
same,pest or weed control at 31 g/ha,[11]; 31 g ai/ha Preemergence,0%
same,pest or weed control at 125 g/ha,[11]; 125 g ai/ha Preemergence,75%
same,pest or weed control at 62 g/ha,[11]; Preemergence,5%
same,pest or weed control at 8 g/ha,[12]; 8 g ai/ha Preemergence,0%
same,pest or weed control at 16 g/ha,[12]; 16 g ai/ha Preemergence,0%
same,pest or weed control at 31 g/ha,[12]; 31 g ai/ha Preemergence,25%
same,pest or weed control at 62 g/ha,[12]; 62 g ai/ha Preemergence,70%
same,pest or weed control at 125 g/ha,[12]; 125 g ai/ha Preemergence,98%
same,pest or weed control at 8 g/ha,[13]; 8 g ai/ha Preemergence,0%
same,pest or weed control at 16 g/ha,[13]; 16 g ai/ha Preemergence,20%
same,pest or weed control at 31 g/ha,[13]; 31 g ai/ha Preemergence,25%
same,pest or weed control at 125 g/ha,[13]; 125 g ai/ha Preemergence,35%
same,pest or weed control at 62 g/ha,[13]; Preemergence,40%
same,pest or weed control at 8 g/ha,[14]; [17],40%
same,pest or weed control at 16 g/ha,[14]; [18],40%
same,pest or weed control at 31 g/ha,[14]; [19],35%
same,pest or weed control at 62 g/ha,[14]; [20],50%
same,pest or weed control at 125 g/ha,[14]; [21],75%
same,pest or weed control at 8 g/ha,[14]; [22],0%
same,pest or weed control at 16 g/ha,[14]; [23],0%
same,pest or weed control at 31 g/ha,[14]; [24],0%
same,pest or weed control at 62 g/ha,[14]; [25],0%
same,pest or weed control at 125 g/ha,[14]; [26],0%
same,pest or weed control at 8 g/ha,[15]; 8 g ai/ha Preemergence,0%
same,pest or weed control at 16 g/ha,[15]; 16 g ai/ha Preemergence,0%
same,pest or weed control at 31 g/ha,[15]; 31 g ai/ha Preemergence,0%
same,pest or weed control at 125 g/ha,[15]; 125 g ai/ha Preemergence,0%
same,pest or weed control at 62 g/ha,[15]; Preemergence,0%
same,pest or weed control at 8 g/ha,[16]; [17],0%
same,pest or weed control at 16 g/ha,[16]; [18],0%
same,pest or weed control at 31 g/ha,[16]; [19],5%
same,pest or weed control at 62 g/ha,[16]; [20],10%
same,pest or weed control at 125 g/ha,[16]; [21],60%
same,pest or weed control at 8 g/ha,[16]; [22],0%
same,pest or weed control at 16 g/ha,[16]; [23],0%
same,pest or weed control at 31 g/ha,[16]; [24],0%
same,pest or weed control at 125 g/ha,[16]; [26],100%
same,pest or weed control at 62 g/ha,"[16]; pre-emergence, Preemergence",95%
